Test results: article PMC6838142, “Nano-Antagonist Alleviates Inflammation and Allows for MRI of Atherosclerosis” (Nanotheranostics, 2019)

System: bone marrow derived monocytes, CCL2-induced migration
Test: CCL2-induced chemotaxis assay
Assay type: cell-based, mouse
Design: cell velocity / distance traveled / chemotactic index: dose or concentration left out as unconfirmed
Procedure: Chemotaxis assays were performed using IBIDI µ-Slides as per the manufacturer's instructions and the recently published guide detailing the protocol. […] Cells were allowed to attach for 3 h at 37 °C, washed with 0.2 mL warm cell culture medium using a pipette tip inserted into µ-channel port, following which 100 nM recombinant mouse CCL2 protein was added as a chemoattractant (or omitted in control slides) to the one of side reservoirs. Cell movement was recorded for a duration of 12 h via phase video-microscopy in a stage-top humidified incubator at 37 °C and 5% CO2 atmosphere. Analysis was performed using the ImageJ IBIDI tracking tool, available free of charge at https://ibidi.com.

CCTV
cell velocity (CCL2-induced chemotaxis): statistically significant inhibition
chemotactic index (CCL2-induced chemotaxis): statistically significant inhibition
distance traveled (CCL2-induced chemotaxis): statistically significant inhibition
CCL2-induced monocyte migration (pre-treated BMDMs, 100 nM recombinant mouse CCL2, 12 h, nanoparticles): potently inhibited CCL2-induced monocyte migration in an antagonistic manner
